PMC8592419 (PLoS ONE, 2021)
Values after ≈ are worked out from the molar mass of the structure shown. Where a SMILES comes first, the peptide text is derived from it.

Columns and labels:
[1] = system: M. abscessus clinical isolate MAB01; test: microbe, parasite or virus in culture; type: cell-based, M. abscessus subsp. abscessus
Protocol: (§1) Mab suspensions at a 5×10^5 CFU/ml final concentration were added to each well and incubated for 3 days and 14 days at 37°C. MIC values were defined when the percent killing of CFUs of more than 90% were compared to the media controls without AMPs or drugs. The fraction inhibitory concentration index (FICI) was calculated using the following formula: FICI = [C(MIC^A)/MIC^A] + [C(MIC^B)/MIC^B]. […] For interpretation, FICI ≤ 0.5 was interpreted as synergism, FICI >0.5–1.0 was interpreted as additive, FICI >1.0–4.0 was interpreted as indifferent and FICI >4.0 was interpreted as antagonism.

[2] = system: M. abscessus clinical isolate MAB02; test: microbe, parasite or virus in culture; type: cell-based, M. abscessus subsp. abscessus
Protocol: as §1

[3] = system: M. abscessus clinical isolate MAB03; test: microbe, parasite or virus in culture; type: cell-based, M. abscessus subsp. abscessus
Protocol: as §1

[4] = system: M. abscessus clinical isolate MAB05; test: microbe, parasite or virus in culture; type: cell-based, M. abscessus subsp. abscessus
Protocol: as §1

[5] = system: M. abscessus clinical isolate MAB07; test: microbe, parasite or virus in culture; type: cell-based, M. abscessus subsp. abscessus
Protocol: as §1

[6] = system: M. abscessus clinical isolate MAB09; test: microbe, parasite or virus in culture; type: cell-based, M. abscessus subsp. abscessus
Protocol: as §1

[7] = system: M. abscessus clinical isolate MAB10; test: microbe, parasite or virus in culture; type: cell-based, M. abscessus subsp. abscessus
Protocol: as §1

[8] = system: M. abscessus clinical isolate MAB11; test: microbe, parasite or virus in culture; type: cell-based, M. abscessus subsp. abscessus
Protocol: as §1

[9] = system: M. abscessus clinical isolate MAB12; test: microbe, parasite or virus in culture; type: cell-based, M. abscessus subsp. massiliense
Protocol: as §1

[10] = system: M. abscessus clinical isolate MAB14; test: microbe, parasite or virus in culture; type: cell-based, M. abscessus subsp. massiliense
Protocol: as §1

Mab ATCC19977 strain = type: cell-based, Mycobacterium abscessus
Protocol: (§2) Briefly, serial dilutions of the AMPs were prepared with potassium phosphate buffer (PPB) from the concentration range of 3.125 to 400 μg/ml and then 50 μl of each dilution were added to each 96-well plate. Colonies of the isolate were suspended and then further diluted in Mueller-Hinton broth to obtain a final concentration of 1×10^3 CFU/ml (optimized according to the available AMP stock concentration). Fifty microliters of this inoculum were added to each well of the plates. The plates were incubated for 3 days at 37°C. Plain media and bacterial suspensions without AMPs were used as negative and positive controls. The MIC values were read and recorded. All assays were performed in duplicate and two independent experiments.

[11] = system: M. abscessus clinical isolate MAB06; type: cell-based, M. abscessus subsp. abscessus; settings: 3 days at 37°C
Protocol: as §2
(§3) For the in vitro antimicrobial susceptibility, the same protocol as described above was used. The culture plates were further incubated up to 3 days at 37°C. The MIC values were read and recorded.

[12] = system: M. abscessus clinical isolate MAB13; type: cell-based, M. abscessus subsp. massiliense; settings: 3 days at 37°C
Protocol: as §2, §3

[13] = system: human peripheral blood mononuclear cells (PBMCs); test: PBMC toxicity, trypan blue exclusion assay; type: cell-based; settings: 1 h at 37°C, mean±SD of duplicates, two independent experiments
Protocol: For the toxicity of the potential AMPs to human peripheral blood mononuclear cells (PBMCs), the trypan blue exclusion assay was used. Fresh human PBMCs were prepared from blood samples of healthy volunteers using the Ficoll density gradient technique. The cells were centrifuged at 1,800 rpm for 20 min at 20°C and washed three times with PBS and adjusted with RPMI-1640 medium into 6.25×10^5 cells/ml. Fifty microliters of PBMC suspension and 50 μl of AMP solutions (6.25–400 μg/ml) were added to the 96-well microtiter plates and incubated for 1 h at 37°C. Then, 20 μl of the samples were mixed with 20 μl of 0.4% (w/v) trypan blue solution (0.81% NaCl and 0.06% (w/v) dibasic potassium phosphate) in microtubes and incubated for 3 min at room temperature. The PBMC suspensions treated with PBS were used as negative controls. PBMCs were counted using a dual-chamber hemocytometer under a light microscope. Viable and non-viable cells were counted under a microscope and the percentage of viable cells was calculated using the following formula: % of viable cells = [1.00 –([…] / Number of total cells)] × 100. All assays were performed in duplicate with two independent experiments.

[14] = system: clinical isolates of M. abscessus; test: In vitro susceptibility of potential AMPs, 3 days, summary over isolates; type: cell-based, Mycobacterium abscessus; settings: isolates MAB01 and MAB03
Protocol: as §2, §3

[15] = Mycobacteroides abscessus, read-out: MIC of CLA

CC[C@H]1OC(=O)[C@H](C)[C@@H](O[C@H]2C[C@@](C)(OC)[C@@H](O)[C@H](C)O2)[C@H](C)[C@@H](O[C@@H]2O[C@H](C)C[C@H](N(C)C)[C@H]2O)[C@](C)(OC)C[C@@H](C)C(=O)[C@H](C)[C@@H](O)[C@]1(C)O [CLA, Clarithromycin]
MIC of CLA, combined CLA + S61 ([1]; MAB01, checkerboard, in combination with S61): 32 µg/mL
MIC of CLA, combined CLA + S62 ([1]; MAB01, checkerboard, in combination with S62): 96 µg/mL
MIC [1, 15]: 1020 µg/mL
MIC of CLA, combined CLA + S61 ([2]; MAB02, checkerboard, in combination with S61): 64 µg/mL
MIC of CLA, combined CLA + S62 ([2]; MAB02, checkerboard, in combination with S62): 64 µg/mL
MIC of CLA, combined CLA + S63 ([2]; MAB02, checkerboard, in combination with S63): 64 µg/mL
MIC [2, 15]: 64 µg/mL
MIC of CLA, combined CLA + S61 ([3]; MAB03, checkerboard, in combination with S61): 2 µg/mL
MIC of CLA, combined CLA + S62 ([3]; MAB03, checkerboard, in combination with S62): 1.5 µg/mL
MIC of CLA, combined CLA + S63 ([3]; MAB03, checkerboard, in combination with S63): 4 µg/mL
MIC [3, 15]: 8 µg/mL
MIC of CLA, combined CLA + S61 ([4]; MAB05, checkerboard, in combination with S61): 16 µg/mL
MIC of CLA, combined CLA + S62 ([4]; MAB05, checkerboard, in combination with S62): 16 µg/mL
MIC of CLA, combined CLA + S63 ([4]; MAB05, checkerboard, in combination with S63): 16 µg/mL
MIC [4, 15]: 16 µg/mL
MIC of CLA, combined CLA + S61 ([5]; MAB07, checkerboard, in combination with S61): 0.25 µg/mL
MIC of CLA, combined CLA + S62 ([5]; MAB07, checkerboard, in combination with S62): 0.25 µg/mL
MIC of CLA, combined CLA + S63 ([5]; MAB07, checkerboard, in combination with S63): 0.25 µg/mL
MIC [5, 15]: 16 µg/mL
MIC of CLA, combined CLA + S61 ([6]; MAB09, checkerboard, in combination with S61): 8 µg/mL
MIC of CLA, combined CLA + S62 ([6]; MAB09, checkerboard, in combination with S62): 6 µg/mL
MIC of CLA, combined CLA + S63 ([6]; MAB09, checkerboard, in combination with S63): 4 µg/mL
MIC [6, 15]: 8 µg/mL
MIC of CLA, combined CLA + S61 ([7]; MAB10, checkerboard, in combination with S61): 32 µg/mL
MIC of CLA, combined CLA + S62 ([7]; MAB10, checkerboard, in combination with S62): 32 µg/mL
MIC of CLA, combined CLA + S63 ([7]; MAB10, checkerboard, in combination with S63): 8 µg/mL
MIC [7, 15]: 1020 µg/mL
MIC of CLA, combined CLA + S61 ([8]; MAB11, checkerboard, in combination with S61): 128 µg/mL
MIC of CLA, combined CLA + S62 ([8]; MAB11, checkerboard, in combination with S62): 192 µg/mL
MIC of CLA, combined CLA + S63 ([8]; MAB11, checkerboard, in combination with S63): 192 µg/mL
MIC [8, 15]: 512 µg/mL
MIC of CLA, combined CLA + S61 ([9]; MAB12, checkerboard, in combination with S61): 1,024 μg/ml
MIC of CLA, combined CLA + S62 ([9]; MAB12, checkerboard, in combination with S62): 1,024 μg/ml
MIC of CLA, combined CLA + S63 ([9]; MAB12, checkerboard, in combination with S63): 1,024 μg/ml
MIC [9, 15]: 1020 µg/mL
MIC of CLA, combined CLA + S61 ([10]; MAB14, checkerboard, in combination with S61): 4 µg/mL
MIC of CLA, combined CLA + S62 ([10]; MAB14, checkerboard, in combination with S62): 4 µg/mL
MIC of CLA, combined CLA + S63 ([10]; MAB14, checkerboard, in combination with S63): 32 µg/mL
MIC [10, 15]: 512 µg/mL

CC[C@H](C)[C@H](NC(=O)[C@H](CCCCN)NC(=O)[C@H](CCCNC(=N)N)NC(=O)CNC(=O)[C@H](CC(C)C)NC(=O)[C@H](CO)NC(=O)[C@H](CCCNC(=N)N)NC(=O)[C@H](CC(C)C)NC(=O)CNC(=O)CN)C(=O)N[C@@H](CC(C)C)C(=O)N[C@@H](CCCNC(=N)N)C(=O)N[C@@H](C)C(=O)N[C@@H](Cc1c[nH]c2ccccc12)C(=O)N[C@@H](CCCCN)C(=O)N[C@@H](CCCCN)C(=O)N[C@@H](Cc1ccc(O)cc1)C(=O)O [S61] (H-GGLRSLGRKILRAWKKY-OH)
MIC values (Mab ATCC19977 strain): 200 µg/mL (≈ 99.9 µM)
Antimicrobial peptides against M. abscessus isolates, MIC value [11]: >400 µg/mL
Antimicrobial peptides against M. abscessus isolates, MIC value [12]: >400 µg/mL
FICI ([1]; MAB01, AMP + CLA, mean ± S.D., two independent experiments): 0.41±0.17
FICI ([2]; MAB02, AMP + CLA, mean ± S.D., two independent experiments): 1.02±0.00
MIC, AMP alone ([2]; MAB02, AMP alone): >400 µg/mL
FICI ([3]; MAB03, AMP + CLA, mean ± S.D., two independent experiments): 0.28±0.00
MIC, AMP alone ([3]; MAB03, AMP alone): 6.25 µg/mL
FICI ([4]; MAB05, AMP + CLA, mean ± S.D., two independent experiments): 1.01±0.00
MIC, AMP alone ([4]; MAB05, AMP alone): >400 µg/mL
FICI ([5]; MAB07, AMP + CLA, mean ± S.D., two independent experiments): 0.03±0.00
MIC, AMP alone ([5]; MAB07, AMP alone): >400 µg/mL
FICI ([6]; MAB09, AMP + CLA, mean ± S.D., two independent experiments): 1.01±0.00
MIC, AMP alone ([6]; MAB09, AMP alone): >400 µg/mL
FICI ([7]; MAB10, AMP + CLA, mean ± S.D., two independent experiments): 0.05±0.00
MIC, AMP alone ([7]; MAB10, AMP alone): >400 µg/mL
FICI ([8]; MAB11, AMP + CLA, mean ± S.D., two independent experiments): 0.67±0.08
MIC, AMP alone ([8]; MAB11, AMP alone): >400 µg/mL
FICI ([9]; MAB12, AMP + CLA, mean ± S.D., two independent experiments): 1.01±0.00
MIC, AMP alone ([9]; MAB12, AMP alone): >400 µg/mL
FICI ([10]; MAB14, AMP + CLA, mean ± S.D., two independent experiments): 0.10±0.04
MIC, AMP alone ([10]; MAB14, AMP alone): >400 µg/mL
Viable cells of PBMCs (% viable cells) ([13]; 6.25 µg/mL): 97.98±1.38%
Viable cells of PBMCs (% viable cells) ([13]; 12.5 µg/mL): 94.40±0.56%
Viable cells of PBMCs (% viable cells) ([13]; 25 µg/mL): 95.35±3.74%
Viable cells of PBMCs (% viable cells) ([13]; 50 µg/mL): 87.35±7.57%
Viable cells of PBMCs (% viable cells) ([13]; 100 µg/mL): 79.70±6.73%
Viable cells of PBMCs (% viable cells) ([13]; 200 µg/mL): 38.76±0.82%
Viable cells of PBMCs (% viable cells) ([13]; 400 µg/mL): 41.40±5.84%
MIC values after 3 days [14]: 3.13 µM (≈ 6.27 µg/mL)
